{
  "source": "paper PMC11446596",
  "about": "(Critical Care Explorations, 2024)",
  "key": {"[1]": {"set-up": "species or system human", "conditions": "for Trough Vancomycin Concentration achieving AUC24/MIC = 400: regression equation"}, "[2]": {"conditions": "critically ill children; cited from earlier work"}, "[3]": {"conditions": "median / average of model-predicted half-life; PICU children"}, "[4]": {"conditions": "AUC24 regression equation, 365 troughs, 238 subjects"}},
  "note": "Read-outs that look alike come from different tables or passages of the source.",
  "data": [
    {"smiles": "CN[C@H](CC(C)C)C(=O)N[C@H]1C(=O)N[C@@H](CC(N)=O)C(=O)N[C@H]2C(=O)N[C@H]3C(=O)N[C@H](C(=O)N[C@H](C(=O)O)c4cc(O)cc(O)c4-c4cc3ccc4O)[C@H](O)c3ccc(c(Cl)c3)Oc3cc2cc(c3O[C@@H]2O[C@H](CO)[C@@H](O)[C@H](O)[C@H]2O[C@H]2C[C@](C)(N)[C@H](O)[C@H](C)O2)Oc2ccc(cc2Cl)[C@H]1O", "note": "[vancomycin]", "values": [
      {"measurement": "Trough Vancomycin Concentration achieving AUC24/MIC = 400", "setting": "[1]; 15 mg/kg q6h, body weight 10 kg, MIC = 0.5 μg/mL", "value": 1.8, "unit": "mg/L"},
      {"measurement": "Trough Vancomycin Concentration achieving AUC24/MIC = 400", "setting": "[1]; 15 mg/kg q6h, body weight 10 kg, MIC = 1 μg/mL", "value": 7.4, "unit": "mg/L"},
      {"measurement": "Trough Vancomycin Concentration achieving AUC24/MIC = 400", "setting": "[1]; 15 mg/kg q6h, body weight 10 kg, MIC = 2 μg/mL", "value": 29.9, "unit": "mg/L"},
      {"measurement": "Trough Vancomycin Concentration achieving AUC24/MIC = 400", "setting": "[1]; 15 mg/kg q6h, body weight 20 kg, MIC = 0.5 μg/mL", "value": 1.7, "unit": "mg/L"},
      {"measurement": "Trough Vancomycin Concentration achieving AUC24/MIC = 400", "setting": "[1]; 15 mg/kg q6h, body weight 20 kg, MIC = 1 μg/mL", "value": 6.9, "unit": "mg/L"},
      {"measurement": "Trough Vancomycin Concentration achieving AUC24/MIC = 400", "setting": "[1]; 15 mg/kg q6h, body weight 20 kg, MIC = 2 μg/mL", "value": 28.0, "unit": "mg/L"},
      {"measurement": "Trough Vancomycin Concentration achieving AUC24/MIC = 400", "setting": "[1]; 15 mg/kg q6h, body weight 40 kg, MIC = 0.5 μg/mL", "value": 1.5, "unit": "mg/L"},
      {"measurement": "Trough Vancomycin Concentration achieving AUC24/MIC = 400", "setting": "[1]; 15 mg/kg q6h, body weight 40 kg, MIC = 1 μg/mL", "value": 6.1, "unit": "mg/L"},
      {"measurement": "Trough Vancomycin Concentration achieving AUC24/MIC = 400", "setting": "[1]; 15 mg/kg q6h, body weight 40 kg, MIC = 2 μg/mL", "value": 24.6, "unit": "mg/L"},
      {"measurement": "Trough Vancomycin Concentration achieving AUC24/MIC = 400", "setting": "[1]; 15 mg/kg q8h, body weight 10 kg, MIC = 0.5 μg/mL", "value": 2.5, "unit": "mg/L"},
      {"measurement": "Trough Vancomycin Concentration achieving AUC24/MIC = 400", "setting": "[1]; 15 mg/kg q8h, body weight 10 kg, MIC = 1 μg/mL", "value": 10.0, "unit": "mg/L"},
      {"measurement": "Trough Vancomycin Concentration achieving AUC24/MIC = 400", "setting": "[1]; 15 mg/kg q8h, body weight 10 kg, MIC = 2 μg/mL", "value": 40.7, "unit": "mg/L"},
      {"measurement": "Trough Vancomycin Concentration achieving AUC24/MIC = 400", "setting": "[1]; 15 mg/kg q8h, body weight 20 kg, MIC = 0.5 μg/mL", "value": 2.3, "unit": "mg/L"},
      {"measurement": "Trough Vancomycin Concentration achieving AUC24/MIC = 400", "setting": "[1]; 15 mg/kg q8h, body weight 20 kg, MIC = 1 μg/mL", "value": 9.3, "unit": "mg/L"},
      {"measurement": "Trough Vancomycin Concentration achieving AUC24/MIC = 400", "setting": "[1]; 15 mg/kg q8h, body weight 20 kg, MIC = 2 μg/mL", "value": 37.6, "unit": "mg/L"},
      {"measurement": "Trough Vancomycin Concentration achieving AUC24/MIC = 400", "setting": "[1]; 15 mg/kg q8h, body weight 40 kg, MIC = 0.5 μg/mL", "value": 2.0, "unit": "mg/L"},
      {"measurement": "Trough Vancomycin Concentration achieving AUC24/MIC = 400", "setting": "[1]; 15 mg/kg q8h, body weight 40 kg, MIC = 1 μg/mL", "value": 8.0, "unit": "mg/L"},
      {"measurement": "Trough Vancomycin Concentration achieving AUC24/MIC = 400", "setting": "[1]; 15 mg/kg q8h, body weight 40 kg, MIC = 2 μg/mL", "value": 32.4, "unit": "mg/L"},
      {"measurement": "Trough Vancomycin Concentration achieving AUC24/MIC = 400", "setting": "[1]; 20 mg/kg q6h, body weight 10 kg, MIC = 0.5 μg/mL", "value": 1.8, "unit": "mg/L"},
      {"measurement": "Trough Vancomycin Concentration achieving AUC24/MIC = 400", "setting": "[1]; 20 mg/kg q6h, body weight 10 kg, MIC = 1 μg/mL", "value": 7.2, "unit": "mg/L"},
      {"measurement": "Trough Vancomycin Concentration achieving AUC24/MIC = 400", "setting": "[1]; 20 mg/kg q6h, body weight 10 kg, MIC = 2 μg/mL", "value": 29.3, "unit": "mg/L"},
      {"measurement": "Trough Vancomycin Concentration achieving AUC24/MIC = 400", "setting": "[1]; 20 mg/kg q6h, body weight 20 kg, MIC = 0.5 μg/mL", "value": 1.6, "unit": "mg/L"},
      {"measurement": "Trough Vancomycin Concentration achieving AUC24/MIC = 400", "setting": "[1]; 20 mg/kg q6h, body weight 20 kg, MIC = 1 μg/mL", "value": 6.6, "unit": "mg/L"},
      {"measurement": "Trough Vancomycin Concentration achieving AUC24/MIC = 400", "setting": "[1]; 20 mg/kg q6h, body weight 20 kg, MIC = 2 μg/mL", "value": 26.8, "unit": "mg/L"},
      {"measurement": "Trough Vancomycin Concentration achieving AUC24/MIC = 400", "setting": "[1]; 20 mg/kg q6h, body weight 40 kg, MIC = 0.5 μg/mL", "value": 1.4, "unit": "mg/L"},
      {"measurement": "Trough Vancomycin Concentration achieving AUC24/MIC = 400", "setting": "[1]; 20 mg/kg q6h, body weight 40 kg, MIC = 1 μg/mL", "value": 5.6, "unit": "mg/L"},
      {"measurement": "Trough Vancomycin Concentration achieving AUC24/MIC = 400", "setting": "[1]; 20 mg/kg q6h, body weight 40 kg, MIC = 2 μg/mL", "value": 22.6, "unit": "mg/L"},
      {"measurement": "Trough Vancomycin Concentration achieving AUC24/MIC = 400", "setting": "[1]; 30 mg/kg q8h, body weight 10 kg, MIC = 0.5 μg/mL", "value": 2.3, "unit": "mg/L"},
      {"measurement": "Trough Vancomycin Concentration achieving AUC24/MIC = 400", "setting": "[1]; 30 mg/kg q8h, body weight 10 kg, MIC = 1 μg/mL", "value": 9.3, "unit": "mg/L"},
      {"measurement": "Trough Vancomycin Concentration achieving AUC24/MIC = 400", "setting": "[1]; 30 mg/kg q8h, body weight 10 kg, MIC = 2 μg/mL", "value": 37.6, "unit": "mg/L"},
      {"measurement": "Trough Vancomycin Concentration achieving AUC24/MIC = 400", "setting": "[1]; 30 mg/kg q8h, body weight 20 kg, MIC = 0.5 μg/mL", "value": 2.0, "unit": "mg/L"},
      {"measurement": "Trough Vancomycin Concentration achieving AUC24/MIC = 400", "setting": "[1]; 30 mg/kg q8h, body weight 20 kg, MIC = 1 μg/mL", "value": 8.0, "unit": "mg/L"},
      {"measurement": "Trough Vancomycin Concentration achieving AUC24/MIC = 400", "setting": "[1]; 30 mg/kg q8h, body weight 20 kg, MIC = 2 μg/mL", "value": 32.4, "unit": "mg/L"},
      {"measurement": "Trough Vancomycin Concentration achieving AUC24/MIC = 400", "setting": "[1]; 30 mg/kg q8h, body weight 40 kg, MIC = 0.5 μg/mL", "value": 1.5, "unit": "mg/L"},
      {"measurement": "Trough Vancomycin Concentration achieving AUC24/MIC = 400", "setting": "[1]; 30 mg/kg q8h, body weight 40 kg, MIC = 1 μg/mL", "value": 6.1, "unit": "mg/L"},
      {"measurement": "Trough Vancomycin Concentration achieving AUC24/MIC = 400", "setting": "[1]; 30 mg/kg q8h, body weight 40 kg, MIC = 2 μg/mL", "value": 24.7, "unit": "mg/L"},
      {"measurement": "Exponent of trough concentration", "setting": "[1]; AUC24 regression equation, (Ctr/7)^x, 365 troughs, 238 subjects", "value": 0.495},
      {"measurement": "Additive shift for dose frequency < 8 hours", "setting": "[1]; [4]", "value": 54.9},
      {"measurement": "Slope of (DOSE [mg] - 500)", "setting": "[1]; [4]", "value": 0.0894},
      {"measurement": "Vc reported by Downes et al", "setting": "[2]", "value": 2.59, "unit": "L"},
      {"measurement": "Vp reported by Downes et al", "setting": "[2]", "value": 5.74, "unit": "L"},
      {"measurement": "half-life (model-predicted, terminal)", "setting": "[3]", "value": 6, "unit": "h"}
    ]}
  ]
}
